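48-hour exposure; five concentrations; linearly interpolated endpoints. GI50 marks 50% less growth.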 Activity calls are given as the source filed them. No stated cut-off is given here; in the data, active = GI50 up to about 1.1 µM and inactive = higher.
What was measured:
Experiment in all cases: DTP human tumour cell line panel, 48 h
[1] = test system: PC-3
[2] = test system: MDA-N
[3] = test system: SR
[4] = test system: SW-620
[5] = test system: SK-MEL-28
[6] = test system: KM12
[7] = test system: NCI-H460
[8] = test system: NCI-H226
[9] = test system: NCI/ADR-RES
[10] = test system: HCT-116
[11] = test system: HCT-15
[12] = test system: HOP-92
[13] = test system: HT-29
[14] = test system: HL-60
[15] = test system: OVCAR-3
[16] = test system: SF-539
[17] = test system: NCI-H23
[18] = test system: CAKI-1
[19] = test system: NCI-H522
[20] = test system: HOP-62

| SMILES | GI50 [1] | GI50 [2] | GI50 [3] | GI50 [4] | GI50 [5] | GI50 [6] | GI50 [7] | GI50 [8] | GI50 [9] | GI50 [10] | GI50 [11] | GI50 [12] | GI50 [13] | GI50 [14] | GI50 [15] | GI50 [16] | GI50 [17] | GI50 [18] | GI50 [19] | GI50 [20] |
| --- | --- | --- | --- | --- | --- | --- | --- | --- | --- | --- | --- | --- | --- | --- | --- | --- | --- | --- | --- | --- |
| CCOc1ccc(-n2nnc3c(N)nc(N)nc32)cc1 | > 100 µM (inactive) | > 100 µM (inactive) | > 100 µM (inactive) | > 100 µM (inactive) | > 100 µM (inactive) | > 100 µM (inactive) | > 100 µM (inactive) | > 100 µM (inactive) | > 100 µM (inactive) | > 100 µM (inactive) | > 100 µM | > 100 µM (inactive) | > 100 µM (inactive) | > 10 µM (inactive) | > 100 µM (inactive) | > 100 µM (inactive) | > 100 µM (inactive) | > 100 µM (inactive) | > 100 µM (inactive) | > 100 µM (inactive) |
| CC1CC[C@@]2(OC1)OC1C[C@H]3[C@@H]4C/C(=N\N(C)C)[C@@]5(O)CC(O)CC[C@]5(C)[C@H]4CC[C@]3(C)C1[C@@H]2C (stereo not given in full) | 33.7 µM (inactive) | 23.3 µM (inactive) | 22.5 µM (inactive) | 55.8 µM (inactive) | > 100 µM (inactive) | 29.3 µM (inactive) | 45.9 µM (inactive) | > 100 µM (inactive) | 49.4 µM (inactive) | 24.7 µM (inactive) | 67.1 µM | 98.2 µM (inactive) | 20 µM (inactive) | 21.2 µM (inactive) | 43.9 µM (inactive) | 36 µM (inactive) | 30.5 µM (inactive) | – | – | 41.3 µM (inactive) |
| O=C1CSC2(CC(/C=C/c3ccccc3[N+](=O)[O-])=NN2c2cccc(S(=O)(=O)O)c2)N1c1nc2ccccc2s1 (stereo not given) | 15.3 µM (inactive) | 17.9 µM (inactive) | 20.2 µM (inactive) | 22.6 µM (inactive) | 38 µM (inactive) | 15.5 µM (inactive) | 17 µM (inactive) | 16.8 µM (inactive) | 21.5 µM (inactive) | 21.3 µM (inactive) | 17 µM | 25.5 µM (inactive) | 23.8 µM (inactive) | 21.7 µM (inactive) | – | 23.5 µM (inactive) | 16.9 µM (inactive) | 32.7 µM (inactive) | 11.6 µM (inactive) | – |
| O=C(N/N=C/c1ccc([N+](=O)[O-])cc1)c1cccc2nc3ccccc3nc12 | > 75.9 µM (inactive) | > 100 µM (inactive) | > 39.5 µM (inactive) | > 100 µM (inactive) | > 100 µM (inactive) | > 100 µM (inactive) | 1.5 µM (inactive) | > 100 µM (inactive) | > 100 µM (inactive) | > 100 µM (inactive) | > 55.7 µM | > 51.9 µM (inactive) | > 100 µM (inactive) | > 100 µM (inactive) | > 100 µM (inactive) | > 38.5 µM (inactive) | 12.2 µM (inactive) | > 100 µM (inactive) | > 100 µM (inactive) | 1.74 µM (inactive) |
| Cc1ccc(S(=O)(=O)N2CCN(S(=O)(=O)c3ccc(C)cc3)CCN(S(=O)(=O)c3ccc(C)cc3)Cc3cc(Br)c(Br)cc3CN(S(=O)(=O)c3ccc(C)cc3)CC2)cc1 | 46.9 µM (inactive) | 66.8 µM (inactive) | > 100 µM (inactive) | 97.7 µM (inactive) | > 100 µM (inactive) | 97.7 µM (inactive) | > 100 µM (inactive) | 46.6 µM (inactive) | > 100 µM (inactive) | > 100 µM (inactive) | > 100 µM | 23.6 µM (inactive) | > 100 µM (inactive) | > 100 µM (inactive) | > 100 µM (inactive) | > 100 µM (inactive) | > 100 µM (inactive) | > 100 µM (inactive) | 52 µM (inactive) | > 100 µM (inactive) |
| Cc1cc(O)c2c(c1)CC(O)C1=C2C(=O)c2c(O)ccc(OC3CC(O)C(OC4CC(OC5CCC(O)C(C)O5)C(O)C(C)O4)C(C)O3)c2C1=O (stereo not given) | 1.71 µM (inactive) | 1.84 µM (inactive) | 0.324 µM (active) | 0.518 µM (active) | 1.92 µM (inactive) | 1.74 µM (inactive) | 2.16 µM (inactive) | 1.5 µM (inactive) | 2.93 µM (inactive) | 1.75 µM (inactive) | 1.96 µM | 1.86 µM (inactive) | 2.27 µM (inactive) | 0.386 µM (active) | 0.662 µM (active) | 1.85 µM (inactive) | 1.83 µM (inactive) | 1.71 µM (inactive) | 0.964 µM (active) | 1.59 µM (inactive) |
| CCN(CC)CCNC(=O)c1cn2c(ccc3sc4ccccc4c(=O)c32)n1 | 10.8 µM (inactive) | 14.1 µM (inactive) | 1.25 µM (inactive) | 6.25 µM (inactive) | 10.4 µM (inactive) | 12.2 µM (inactive) | 1.03 µM (active) | 13.3 µM (inactive) | 11.2 µM (inactive) | 5.97 µM (inactive) | 5.21 µM | 8.91 µM (inactive) | 6.89 µM (inactive) | 5.26 µM (inactive) | 12.8 µM (inactive) | 10.8 µM (inactive) | 11.2 µM (inactive) | 10 µM (inactive) | 9.16 µM (inactive) | 5.96 µM (inactive) |
| O=C(NN=C1NCCCN1)c1ccco1 | > 100 µM (inactive) | > 100 µM (inactive) | > 100 µM (inactive) | > 100 µM (inactive) | > 100 µM (inactive) | > 100 µM (inactive) | > 100 µM (inactive) | > 100 µM (inactive) | > 100 µM (inactive) | > 100 µM (inactive) | > 100 µM | > 100 µM (inactive) | > 100 µM (inactive) | > 100 µM (inactive) | > 100 µM (inactive) | > 100 µM (inactive) | > 100 µM (inactive) | – | > 100 µM (inactive) | > 100 µM (inactive) |
| CC(=O)C1=CN=C2C(=O)N(c3ccccc3)N(C)C12C (stereo not given) | > 100 µM (inactive) | > 100 µM (inactive) | > 100 µM (inactive) | > 100 µM (inactive) | – | 3.08 µM (inactive) | – | > 100 µM (inactive) | 55.1 µM (inactive) | > 100 µM (inactive) | 69.7 µM | > 100 µM (inactive) | – | > 100 µM (inactive) | > 100 µM (inactive) | > 100 µM (inactive) | > 100 µM (inactive) | > 100 µM (inactive) | > 100 µM (inactive) | – |
| COc1ccc(/N=N/c2ccc3oc(=O)c(C(=O)Nc4ccc(Cl)cc4)cc3c2)cc1 | 2.56 µM (inactive) | > 10 µM (inactive) | 2.38 µM (inactive) | 6.97 µM (inactive) | > 10 µM (inactive) | 4.32 µM (inactive) | > 10 µM (inactive) | > 10 µM (inactive) | 5.5 µM (inactive) | – | 0.67 µM | 7.83 µM (inactive) | > 10 µM (inactive) | – | 7.28 µM (inactive) | 5.18 µM (inactive) | 6.38 µM (inactive) | > 10 µM (inactive) | > 10 µM (inactive) | > 10 µM (inactive) |
| CCOC(=O)c1c(SCC#N)n(-c2ccccc2)c(=S)n(-c2ccccc2)c1=O | 18.8 µM (inactive) | 82.8 µM (inactive) | 44 µM (inactive) | 29.9 µM (inactive) | 57.9 µM (inactive) | 47 µM (inactive) | 34.2 µM (inactive) | 38.4 µM (inactive) | 35.3 µM (inactive) | 43.9 µM (inactive) | 25.8 µM | 43.9 µM (inactive) | 41.2 µM (inactive) | 55.6 µM (inactive) | 33.7 µM (inactive) | – | 45.7 µM (inactive) | > 100 µM (inactive) | 34.4 µM (inactive) | 88.1 µM (inactive) |
| COc1cc(Cc2cnc(N)nc2N)cc(OC)c1OCCCNc1ccc([N+](=O)[O-])cc1 | 10.1 µM (inactive) | 16.2 µM (inactive) | 4.68 µM (inactive) | 15.1 µM (inactive) | 13.9 µM (inactive) | 14.4 µM (inactive) | 7.48 µM (inactive) | 13.4 µM (inactive) | 18.6 µM (inactive) | 12.6 µM (inactive) | 14.6 µM | 14.3 µM (inactive) | 2.92 µM (inactive) | – | 14.5 µM (inactive) | 12.7 µM (inactive) | 16 µM (inactive) | 33.2 µM (inactive) | 13 µM (inactive) | 13.6 µM (inactive) |
| Cc1nc2c(O)cc3c4c([nH]c3c2nc1C)C(=O)CCC4 | 3.61 µM (inactive) | 0.869 µM (active) | 2.36 µM (inactive) | 4.22 µM (inactive) | 2.8 µM (inactive) | 3.69 µM (inactive) | 3.51 µM (inactive) | 25.1 µM (inactive) | 34.6 µM (inactive) | 3.01 µM (inactive) | 11.9 µM | 11.2 µM (inactive) | 1.52 µM (inactive) | 3.72 µM (inactive) | 2.61 µM (inactive) | 2.85 µM (inactive) | 6.58 µM (inactive) | – | – | 5.89 µM (inactive) |
| COC(=O)c1cc(C#N)[nH]c1-c1ccsc1 | > 100 µM (inactive) | > 100 µM (inactive) | 29.9 µM (inactive) | > 100 µM (inactive) | > 100 µM (inactive) | > 100 µM (inactive) | – | > 100 µM (inactive) | > 100 µM (inactive) | > 100 µM (inactive) | 70.1 µM | > 100 µM (inactive) | > 100 µM (inactive) | 18.2 µM (inactive) | > 100 µM (inactive) | – | > 100 µM (inactive) | 51.2 µM (inactive) | 87.7 µM (inactive) | > 100 µM (inactive) |
| C1=C[C@@H]2c3ccc4cnccc4c3NC[C@@H]2C1 | > 100 µM (inactive) | > 100 µM (inactive) | > 100 µM (inactive) | > 100 µM (inactive) | > 100 µM (inactive) | 86.3 µM (inactive) | > 100 µM (inactive) | > 100 µM (inactive) | > 100 µM (inactive) | > 100 µM (inactive) | > 100 µM | 75.2 µM (inactive) | – | > 100 µM (inactive) | > 100 µM (inactive) | > 100 µM (inactive) | > 100 µM (inactive) | – | – | > 100 µM (inactive) |

— ChEMBL document CHEMBL1201862, “PubChem BioAssay data set” (2004)
